Values after ≈ are worked out from the molar mass of the structure shown.
What was measured:
platelet aggregation [1] = assay: platelet aggregation inhibiting activity of prior 11-deoxy-7S-prostaglandins E1 (inventors' investigations); format: cell-based
platelet aggregation [2] = assay: extra vivo inhibitory activity of platelet aggregation after oral administration; format: in vivo, guinea pigs (Hartley strain); details: Cavia porcellus; for inhibition at 3 mg/kg: 3 mg/kg p.o.; for inhibition at 10 mg/kg: 10 mg/kg p.o.
Description: The extra vivo platelet aggregation inhibitory activity of the 7-thiaprostaglandin E1 derivatives of the invention were measured by using guinea pigs. A test drug prepared as a 30% ethanol solution of each of the compounds of the invention in ethanol diluted with physiological saline and as a control 30% ethanol solution were orally adminstered in a dose of 1 ml/kg to Hartleystrain guinea pigs having a body weight of 350 to 450 g which had been fasted for 17 hours. 1 hour or 4 hours after the administration of the compound, blood was drawn off by the cardiac puncture using trisodium citrate so that the ratio of the blood to 3.8% trisodium citrate was 9:1. The blood was centrifuged at a speed of 700 rpm for 10 minutes. The upper layer was separated as plateletrich plasma (PRP). The lower layer was further centrifuged at a speed of 2800 rpm for 10 minutes. The upper layer was separated as platelet poor plasma (PPP). 250 microliters of the resulting PRP was taken into an aggregometer cuvette, and incubated at 37° C. for 2 minutes. Then, 25 microliters of a […] ADP disodium solution adjusted by dissolving with 0.1M tris-HCl buffer (ph 8.0) was added. The aggregation curve was recorded for 3 minutes. The maximum degree of aggregation of platelets within this time period was read, and the rate of inhibitor of platelet aggregation was calculated from the following equation. [formula] TC : the transmittance of a control group (to which only the 30% ethanol solution was administered),
TD : the transmittance of a drug administered group.

[3] = tested on: blood pressure of DOCA hypertensive rats; assay: action on blood pressure of conscious DOCA hypertensive rats, oral; format: in vivo, male wistar rats
Description: (3) The compound (No. 138) of the invention was orally adminstered to DOCA hypertensive rats (induced by deoxycholticosteron acetate) in conscious, and its action on the blood pressure was examined.
Male wistar rats weighing about 160 g were rendered hypertensive. Specifically, one kidney was removed from the rats, and DOCA was subcutaneously administered to the rats in a dose of 10 mg/kg twice a week. While the rats were allowed to drink a 1% aqueous solution of sodium chloride, they were kept for more than 4 weeks to induce hypertension. The average blood pressure was measured in the same way as described in (2) above.

[4] = tested on: blood pressure of conscious rats; assay: action on blood pressure of conscious rats, oral; format: in vivo, male wister rats
Description: (2) The thiaprostaglandin E1 derivatives of the invention were orally administered to conscious rats, and their action on the blood pressure was examined.
Male wister rats weighing about 250 g were used as experimental animals. These rat had been fasted for 16 hours before the start of the experiment. A catheter was inserted into the femoral artery of the rats under ether anesthesia, and then the rats were restrained within a Bollman cage. After more than 1 hour from awakening, each of the test compounds was orally administered.
The test compound was dissolved in a small amount of ethanol, and then diluted with water to adjust the final concentration of ethanol to not more than 5%. The mean blood pressure was measured by means of a pressure transducer through the catheter inserted into the femoral artery.

[5] = tested on: blood pressure and heart beat rate of rats; assay: hypotensive activity and heart beat rate, intravenous injection in anesthetized rats; format: in vivo, male wister rats; details: Rattus norvegicus, i.v.; for ED (10% increase of heart rate): read-out: H-ED10 (dosage causing a 10% increase of the heart rate); for ED (20% lowering of blood pressure): read-out: P-ED20 (dosage causing a 20% lowering of the mean blood pressure)
Description: (1) The actions of the thiaprostaglandin E1 derivatives of the invention on the blood pressure and heart beat rate of rats were examined by intravenous injection under anesthesia. Male wister rats weighing about 250 g were used. Urethane (500 mg/kg) and α-chloralose (100 mg/kg) were intraperitoneally administered to the rats. The rats were anesthetized and fixed in place. Each of the test compounds was dissolved in a small amount of ethanol and diluted with physiological saline to adjust the final ethanol concentration to not more than 5%. The solution was intravenously injected into the rats through a catheter inserted into the femoral vein. The blood pressure of the rats was measured by a pressure transducer through a catheter inserted into the carotid artery of the rats. The heart beat rate was determined from the blood pressure pulse. The action of the test compound of the blood pressure was expressed as the dosage (p-ED20, μg/kg) of the test compound which caused a 20% lowering of the mean blood pressure before administration of the compound. The action of the test compound on the heart rate was expressed as the dosage (H-ED10, μg/kg) of the test compound which caused a 10% increase of the heart rate from the heart beat rate before administration of the test compound.

ethanol ulcer (stomach) = assay: ethanol ulcer test (anti-ulcer action); format: in vivo, SD-strain rats
Description: An ethanol ulcer test was carried out by the following processure.
SD-strain rats (body weight 200 to 220 g; 7 weeks old) were fasted for 24 hours, and a solution of each of the test compounds in physiological saline buffered with phosphate buffer at pH 7.5 was orally administered. Thirty minutes after the administration, 75% ethanol was orally administered in a dose of 1 ml/kg. One hour later, the abdomen was incised to isolate the stomach. […] The total of these lengths was defined as the ulcer index. A control group was given physiological saline buffered with phosphate buffer (pH 7.5) and 75% ethanol.

platelet aggregation [6] = assay: in vitro inhibitory activity of platelet aggregation (ADP); format: cell-based, rabbit (Japanese domestic white male); details: Oryctolagus cuniculus, rabbit PRP, 10 μM ADP, 37° C., read-out: IC50 (minimum concentration which inhibited more than 50% of platelet aggregation)
Description: The in vitro platelet aggregation imhibiting activity of the compounds of the invention were examined by using rabbits. Blood was withdrawn from the ear vein of Japanese domestic white male rabbits weighing 2.5 to 3.5 kg. A mixture of a 3.8% trisodium citrate solution and the blood in a ratio of 1:9 was centrifuged at a speed of 1000 rpm for 10 minutes. The upper layer was separated as platelet-rich plasma (PRP). The lower layer was further centrifuged at a speed of 2800 rpm for 10 minutes. The upper layer was separated as platelet-poor plasma (PPP). The number of platelets was adjusted to 6×10^5 /μl to 7×10^5 /μl by diluting the PRP with PPP. 25 microliters of the test compounds prepared as shown below was added in an amount of 25 to 250 microliters of PRP after the adjustment, and the mixture was pre-incubated at 37° C. for 2 minutes, and then 10 μM (final) of ADP was added. By using an aggregometer, changes in transmission were recorded.
The drug was dissolved in ethanol to a concentration of 10 mg/ml, and successively diluted with phosphate buffer (pH 7.4) prior to use.
The rate of inhibition of platelet aggregation was determined from the following equation. [formula] To : the transmittance of the system containing the phosphate buffer, T: the transmittance of the sytem to which the test drug was added.
The minimum concentration of the drug which inhibited more than 50% of platelet aggregation was shown as an IC50 value.

[7] = Rattus norvegicus, po, 100 μg/kg p.o., read-out: Ulcer inhibiting rate (%)

CCCC(C)C[C@H](O)/C=C/[C@H]1CCC(=O)[C@@H]1SCCCCCC(=O)OC (stereo partly shown)
platelet aggregation inhibiting activity (in words) (platelet aggregation [1]): very weak

COC(=O)CCCCCS[C@H]1C(=O)C[C@@H](O)[C@@H]1/C=C/[C@@H](O)C1CCCCC1 [Compound 138, 16,17,18,19,20-pentanor-15-cyclohexyl-7-thiaprostaglandin E1 methyl ester]
inhibition at 3 mg/kg (platelet aggregation [2]; 1 hr): 64.9% | inhibition at 3 mg/kg (platelet aggregation [2]; 4 hr): 23.3% | inhibition at 10 mg/kg (platelet aggregation [2]; 1 hr): 94.1% | inhibition at 10 mg/kg (platelet aggregation [2]; 4 hr): 50% | average blood pressure ([3]; 0.1 mg/kg p.o., 0 min): 167 ± 8 | average blood pressure ([3]; 0.1 mg/kg p.o., 10 min): 149 ± 12 | average blood pressure ([3]; 0.1 mg/kg p.o., 15 min): 156 ± 8 | average blood pressure ([3]; 0.1 mg/kg p.o., 30 min): 165 ± 7 | average blood pressure ([3]; 0.1 mg/kg p.o., 45 min): 168 ± 7 | average blood pressure ([3]; 0.1 mg/kg p.o., 60 min): 171 ± 10 | average blood pressure ([3]; 0.1 mg/kg p.o., 90 min): 177 ± 11 | average blood pressure ([3]; 0.1 mg/kg p.o., 120 min): 182 ± 13 | average blood pressure ([3]; 0.3 mg/kg p.o., 0 min): 165 ± 14 | average blood pressure ([3]; 0.3 mg/kg p.o., 10 min): 134 ± 12 | average blood pressure ([3]; 0.3 mg/kg p.o., 15 min): 141 ± 8 | average blood pressure ([3]; 0.3 mg/kg p.o., 30 min): 151 ± 7 | average blood pressure ([3]; 0.3 mg/kg p.o., 45 min): 161 ± 9 | average blood pressure ([3]; 0.3 mg/kg p.o., 60 min): 169 ± 9 | average blood pressure ([3]; 0.3 mg/kg p.o., 90 min): 170 ± 12 | average blood pressure ([3]; 0.3 mg/kg p.o., 120 min): 180 ± 10 | hypotensive action (in words) ([3]; p.o., hypertensive rats): marked hypotensive action | mean blood pressure ([4]; 1 mg/kg p.o., 0 min, in mmHg): 116 + 4 | mean blood pressure ([4]; 1 mg/kg p.o., 10 min): 99 ± 6 | mean blood pressure ([4]; 1 mg/kg p.o., 15 min): 114 ± 2 | mean blood pressure ([4]; 1 mg/kg p.o., 30 min): 116 ± 4 | mean blood pressure ([4]; 1 mg/kg p.o., 45 min): 119 ± 4 | mean blood pressure ([4]; 1 mg/kg p.o., 60 min): 120 ± 4 | mean blood pressure ([4]; 1 mg/kg p.o., 90 min): 118 ± 3 | mean blood pressure ([4]; 1 mg/kg p.o., 120 min): 118 ± 3 | mean blood pressure ([4]; 10 mg/kg p.o., 0 min): 118 ± 3 | mean blood pressure ([4]; 10 mg/kg p.o., 10 min): 92 ± 9 | mean blood pressure ([4]; 10 mg/kg p.o., 15 min): 95 ± 9 | mean blood pressure ([4]; 10 mg/kg p.o., 30 min): 108 ± 6 | mean blood pressure ([4]; 10 mg/kg p.o., 45 min): 111 ± 4 | mean blood pressure ([4]; 10 mg/kg p.o., 60 min): 112 ± 3 | mean blood pressure ([4]; 10 mg/kg p.o., 90 min): 114 ± 4 | mean blood pressure ([4]; 10 mg/kg p.o., 120 min): 117 ± 4 | hypotensive action (in words) ([4]; p.o., especially 10 mg/kg): long-lasting hypotensive action | ED (10% increase of heart rate) [5]: > 10 µg/kg | ED (20% lowering of blood pressure) [5]: 0.68 µg/kg

CCCC(C)C[C@H](O)/C=C/[C@H]1CCC(=O)[C@@H]1SCCCCCC(=O)O (stereo partly drawn) [11-deoxy-17-methyl-7S-prostaglandin E1]
platelet aggregation inhibiting activity (in words) (platelet aggregation [1]): very weak

CCCCC[C@H](O)/C=C/[C@H]1CCC(=O)[C@@H]1SCCCCCC(=O)OC
platelet aggregation inhibiting activity (in words) (platelet aggregation [1]): very weak

CCCCC[C@H](O)/C=C/[C@H]1[C@H](O)CC(=O)[C@@H]1CCCCCCC(=O)O [PGE1, prostaglandin E1]
Ulcer index (mm) (ethanol ulcer (stomach); 30 μg/kg p.o.): 26.8 ± 12.5 mm | Ulcer index (mm) (ethanol ulcer (stomach); 100 μg/kg p.o., ** P < 0.01): 1.0 ± 1.0 mm | inhibition at 0.03 mg/kg (ethanol ulcer (stomach); Rattus norvegicus, po, 30 μg/kg p.o., read-out: Ulcer inhibiting rate (%)): 60.8% | inhibition at 0.1 mg/kg (ethanol ulcer (stomach); [7]): 98.5% | inhibition at 3 mg/kg (platelet aggregation [2]; 1 hr): 0% | inhibition at 3 mg/kg (platelet aggregation [2]; 4 hr): 25.9% | inhibition at 10 mg/kg (platelet aggregation [2]; 1 hr): 0% | inhibition at 10 mg/kg (platelet aggregation [2]; 4 hr): 16.9% | ED (10% increase of heart rate) [5]: > 10 µg/kg | ED (20% lowering of blood pressure) [5]: 1.21 µg/kg

O=C(O)CCSCCC[C@H]1C(=O)C[C@@H](O)[C@@H]1/C=C/[C@@H](O)C1CCCCC1 [Compound 403, 16,17,18,19,20-pentanor-15-cyclohexyl-4-thiaprostaglandin E1]
Ulcer index (mm) (ethanol ulcer (stomach); 100 μg/kg p.o., ** P < 0.01): 6.0 ± 3.8 mm | inhibition at 0.1 mg/kg (ethanol ulcer (stomach); [7]): 91.2% | antiulcer action (in words) (ethanol ulcer (stomach); p.o., Table 6): nearly the same antiulcer action as prostaglandin E1 | IC50 (platelet aggregation [6]): 2.8 µg/mL (≈ 7.28 µM)

CCCCC[C@H](O)/C=C/[C@H]1CCC(=O)[C@@H]1SCCCCCC(=O)O [11-deoxy-7S-prostaglandin E1]
platelet aggregation inhibiting activity (in words) (platelet aggregation [1]): very weak
